37 molecules from US20240116946A1 (Gilead Sciences, Inc., priority 2022, published 2024) can be followed below.

pEC50, pIC50: −log10 of the molar value. Some results are limits rather than exact numbers.

The target of experiment [1] is recombinant SARS-CoV-2 Main protease (Mpro) (Severe acute respiratory syndrome coronavirus 2 (2019-nCoV) (SARS-CoV-2), UniProt P0DTD1). Put plainly: Cov Mpro Biochemical IC50 Assay. Conditions: recombinant SARS-CoV-2 Mpro, fluorogenic peptide substrate; read-out: MPro IC50.
Experiment [2] has as its system SARS-CoV-2-NLuc. Put plainly: microbe, parasite or virus in culture. Type of experiment: cell-based, SARS Coronavirus 2. Conditions: Severe acute respiratory syndrome coronavirus, 48 h, read-out: MPro EC50.

As for `N#Cc1cc(-c2cccc(Cl)c2-c2ccc3c(=O)n(-c4cncc5ccccc45)c(=O)[nH]c3c2)ccn1` [Example 328], in experiment [1], the pIC50 was 7.81. For the same molecule, the pEC50 in experiment [2] was 7.34.
On the same counts, the results for `O=c1[nH]c2cc(-c3c(Cl)cccc3-c3ccncc3)ccc2c(=O)n1-c1cncc2ccccc12` [Example 329] are 8.01 and 7.65.
The matching figures for `O=c1[nH]c2cc(-c3cc(OC(F)F)ccc3Cl)ccc2c(=O)n1-c1cncc2ccccc12` [Example 330]: 6.49 and 6.67.
On the same counts, the results for `Cc1cc(-c2cccc(Cl)c2-c2ccc3c(=O)n(-c4cncc5ccccc45)c(=O)[nH]c3c2)ccn1` [Example 331] are 7.98 and 7.77.
For `O=c1[nH]c2cc(-c3c(Cl)cccc3-c3ccncc3F)ccc2c(=O)n1-c1cncc2ccccc12` [Example 332], the pIC50 in experiment [1] is 7.82. For the same molecule, the negative logarithm of the EC50 (pEC50) in experiment [2] is 7.41.
As for `COc1cnc(C#N)c(-c2ccc3c(=O)n(-c4cncc5ccccc45)c(=O)[nH]c3c2)c1` [Example 333], in experiment [1], the pIC50 was 6.83. Besides, in experiment [2], the pEC50 was 6.12.
`O=c1[nH]c2cc(-c3c(Cl)cccc3-c3ccnc(C(F)(F)F)c3)ccc2c(=O)n1-c1cncc2ccccc12` [Example 334]: the pIC50 in experiment [1] was 7.10. In addition, the pEC50 in experiment [2] is 7.09.
The matching figures for `COc1cc(-c2ccc3c(=O)n(-c4cncc5ccccc45)c(=O)[nH]c3c2)c(C#N)cn1` [Example 335]: 6.54 and 6.00.
The matching figures for `O=c1[nH]c2cc(-c3ccccc3Cl)sc2c(=O)n1-c1cncc2sccc12` [Example 336]: 8.33 and 8.15.
The matching figures for `O=c1[nH]c2cc(-c3ccccc3Cl)sc2c(=O)n1-c1cncc2ccc(N3CCn4c(nnc4C(F)(F)F)C3)cc12` [Example 337]: over 8.57 and 6.77.
For the molecule `Cc1ccc(Cl)c(-c2cc3[nH]c(=O)n(-c4cncc5ccccc45)c(=O)c3s2)c1` [Example 338], the pIC50 in experiment [1] is 7.86. In addition, the pEC50 in experiment [2] was 7.43.
The matching figures for `Cc1ccc(-c2cc3[nH]c(=O)n(-c4cncc5ccccc45)c(=O)c3s2)c(Cl)c1` [Example 339]: 7.83 and 7.32.
On to `COc1cc(-c2cc3[nH]c(=O)n(-c4cncc5ccccc45)c(=O)c3s2)c(Cl)cc1F` [Example 340, 6-(2-chloro-4-fluoro-5-methoxy-phenyl)-3-(4-isoquinolyl)-1H-thieno[3,2-d]pyrimidine-2,4-dione], for which the pIC50 in experiment [1] is 8.28. In experiment [2], the pEC50 is 8.27.
As for `COc1cc(-c2cc3[nH]c(=O)n(-c4cncc5ccccc45)c(=O)c3s2)c(Cl)cc1C` [Example 341], the pIC50 in experiment [1] was 8.26. In experiment [2], the pEC50 is 8.34.
On the same counts, the results for `COc1cc(-c2cc3[nH]c(=O)n(-c4cncc5ccccc45)c(=O)c3s2)c(Cl)cc1Cl` [Example 342] are 8.35 and 8.17.
The matching figures for `COc1cc(Cl)c(-c2cc3[nH]c(=O)n(-c4cncc5ccccc45)c(=O)c3s2)cc1OC` [Example 343]: 8.40 and 8.11.
Regarding `O=c1[nH]c2cc(-c3cc(OC(F)(F)F)ccc3Cl)sc2c(=O)n1-c1cncc2ccccc12` [Example 344], in experiment [1], the pIC50 was 6.96. In addition, the pEC50 in experiment [2] is 6.43.
The matching figures for `CCOc1ccc(Cl)c(-c2cc3[nH]c(=O)n(-c4cncc5ccccc45)c(=O)c3s2)c1` [Example 345]: 7.83 and 7.21.
The matching figures for `CC(C)Oc1ccc(Cl)c(-c2cc3[nH]c(=O)n(-c4cncc5ccccc45)c(=O)c3s2)c1` [Example 346]: 7.13 and 6.62.
The matching figures for `O=c1[nH]c2cc(-c3cc4c(cc3Cl)OCO4)sc2c(=O)n1-c1cncc2ccccc12` [Example 347]: 6.36 and 6.19.
In the case of `O=c1[nH]c2cc(-c3cc4c(cc3Cl)OC(F)(F)O4)sc2c(=O)n1-c1cncc2ccccc12` [Example 348], the pIC50 in experiment [1] was 5.32. Also, in experiment [2], the pEC50 is 5.05.
On the same counts, the results for `COc1ccc(C)c(-c2cc3[nH]c(=O)n(-c4cncc5ccccc45)c(=O)c3s2)c1` [Example 349] are 8.14 and 7.52.
The matching figures for `Cc1cc(-c2cc3[nH]c(=O)n(-c4cncc5ccccc45)c(=O)c3s2)c(Cl)cc1F` [Example 350]: 7.76 and 7.31.
On the same counts, the results for `O=c1[nH]c2cc(-c3cc(C4CC4)ccc3Cl)sc2c(=O)n1-c1cncc2ccccc12` [Example 351] are 7.71 and 7.16.
For the molecule `Cc1ncc(-c2cccc(Cl)c2-c2ccc3c(=O)n(-c4cncc5ccccc45)c(=O)[nH]c3c2)n1C` [Example 352], the pIC50 in experiment [1] is 7.38. For the same molecule, the pEC50 in experiment [2] is 6.92.
The matching figures for `O=c1[nH]c2cc(-c3c(Cl)cccc3-c3ccc4c(c3)OC(F)(F)O4)sc2c(=O)n1-c1cncc2ccccc12` [Example 353]: 6.84 and 7.50.
On the same counts, the results for `O=c1[nH]c2cc(-c3c(Cl)cccc3-c3ccc4c(c3)OCCO4)sc2c(=O)n1-c1cncc2ccccc12` [Example 354] are 7.34 and 7.89.
The matching figures for `Cc1noc(C)c1-c1cccc(Cl)c1-c1cc2[nH]c(=O)n(-c3cncc4ccccc34)c(=O)c2s1` [Example 355]: 8.02 and 7.64.
Consider `O=c1[nH]c2cc(-c3c(Cl)cccc3-c3ccc4c(c3)OCO4)ccc2c(=O)n1-c1cncc2ccccc12` [Example 356], for which, in experiment [1], the pIC50 was 6.89. For the same molecule, in experiment [2], the pEC50 is 7.28.
For `O=c1[nH]c2cc(-c3c(Cl)cccc3-c3ccc4c(c3)OC(F)(F)O4)ccc2c(=O)n1-c1cncc2ccccc12` [Example 357], the pIC50 in experiment [1] was 6.43. Besides, in experiment [2], the pEC50 is 7.17.
The matching figures for `O=c1[nH]c2cc(-c3c(Cl)cccc3-c3ccc4c(c3)OCCO4)ccc2c(=O)n1-c1cncc2ccccc12` [Example 358]: 6.75 and 6.95.
On the same counts, the results for `Cc1nc2cc(-c3cccc(Cl)c3-c3ccc4c(=O)n(-c5cncc6ccccc56)c(=O)[nH]c4c3)ccc2o1` [Example 359] are 6.97 and 7.04.
On the same counts, the results for `O=C1NCc2cc(-c3cccc(Cl)c3-c3ccc4c(=O)n(-c5cncc6ccccc56)c(=O)[nH]c4c3)ccc21` [Example 360] are 7.71 and 7.38.
For the molecule `O=c1[nH]c2cc(-c3c(Cl)cccc3-c3ccc4oncc4c3)ccc2c(=O)n1-c1cncc2ccccc12` [Example 361], the pIC50 in experiment [1] was 7.41. The pEC50 in experiment [2] is 6.75.
The matching figures for `Cc1noc(C)c1-c1cc2[nH]c(=O)n(-c3cncc4ccccc34)c(=O)c2s1` [Example 362]: 7.45 and 6.70.
Take `Cc1nn(C)cc1-c1cc2[nH]c(=O)n(-c3cncc4ccccc34)c(=O)c2s1` [Example 363]: the pIC50 in experiment [1] was 6.89. In addition, in experiment [2], the pEC50 is 6.10.
The matching figures for `COc1cnc(Cl)c(-c2cc3[nH]c(=O)n(-c4cncc5ccccc45)c(=O)c3s2)c1` [Example 364, 6-(2-chloro-5-methoxypyridin-3-yl)-3-(isoquinolin-4-yl)thieno[3,2-d]pyrimidine-2,4(1H,3H)-dione]: 8.27 and 7.74.

As usually defined, the pIC50 is the negative decadic logarithm of the IC50, by convention in mol/L. Usually pEC50 stands for the negative decadic logarithm of the EC50, by convention in mol/L.
